# Patent US20230054093A1, “TREATMENT” (priority 2019, published 2023)
# What was measured:
# [1] = molecular target: T1, Sp2CBMTD (SpOrig, SEQ ID NO: 7) variant HEX6 V239A/V246G/S342D/R403K, SEQ ID NO: 8 (Streptococcus pneumoniae, UniProt P62575, V239A/V246G); experiment: Biacore characterization of hexameric Sp2CBMTD variants; assay type: binding, Streptococcus pneumoniae (CBM); Pseudomonas aeruginosa (TD); parameters: key: Green: green indicates that the variant closely resembles its WT counterpart for that particular characteristic; Green’: pale green (green’) or yellow indicate increasing degrees of differences; Yellow: pale green (green’) or yellow indicate increasing degrees of differences; Orange: Red or orange indicate significant differences; Red or orange indicate significant differences; conditions: qualitative colour code vs WT hexamer
# T1 construct: trimerises; pHISTEV 6His, E. coli
# Excerpt: (§1) (iv) Surface plasmon resonance (SPR) to measure binding affinity to sialyllactose
# [2] = molecular target: T2, Sp2CBMTD (SpOrig, SEQ ID NO: 7) variant HEX17 A162P/V239A/V246G/S342D/R403K, SEQ ID NO: 9 (Streptococcus pneumoniae, UniProt P62575, A162P/V239A/V246G); experiment: as above; assay type: binding, Streptococcus pneumoniae (CBM); Pseudomonas aeruginosa (TD); parameters: key: Green: green indicates that the variant closely resembles its WT counterpart for that particular characteristic; Green’: pale green (green’) or yellow indicate increasing degrees of differences; Yellow: pale green (green’) or yellow indicate increasing degrees of differences; Orange: Red or orange indicate significant differences; Red or orange indicate significant differences; conditions: qualitative colour code vs WT hexamer
# T2 construct: PDB 2w38); trimerises; pHISTEV 6His, E. coli
# Excerpt: as §1
# [3] = molecular target: T3, Streptococcus pneumoniae NanA sialidase CBM (SpCBM, SEQ ID NO: 4) variant Im23 Y292E (Streptococcus pneumoniae, UniProt P62575, Y292E); experiment: Surface plasmon resonance (SPR, Biacore) binding affinity to sialyllactose; parameters: key to Biacore (binding affinity to sialyllactose): Green: green indicates that the variant closely resembles its WT counterpart for that particular characteristic; Green’: pale green (green’) or yellow indicate increasing degrees of differences; Yellow: pale green (green’) or yellow indicate increasing degrees of differences; Orange: Red or orange indicate significant differences; Red or orange indicate significant differences
# T3 construct: SpCBM, residues 121-305 of S. pneumoniae NanA sialidase; 6His (pHISTEV) (cleaved yes); made in house; host or cells: E. coli
# Excerpt: (§2) The 13 soluble proteins were expressed in E. coli and purified by immobilized metal affinity chromatography (IMAC), followed by TEV digestion to remove the 6His-tag, then reverse IMAC and size exclusion chromatography (SEC).
# (§3) Ten purified domains (WTSp, Im19, Im20, Im21, Im22, Im23, WTTD, Im24, Im26 and Im27) were further characterized by:
# as §1
# [4] = molecular target: T4, Streptococcus pneumoniae NanA sialidase CBM (SpCBM, SEQ ID NO: 4) variant Im21 V246G (Streptococcus pneumoniae, UniProt P62575, V246G); experiment: as above; parameters: key: Green: green indicates that the variant closely resembles its WT counterpart for that particular characteristic; Green’: pale green (green’) or yellow indicate increasing degrees of differences; Yellow: pale green (green’) or yellow indicate increasing degrees of differences; Orange: Red or orange indicate significant differences; Red or orange indicate significant differences; conditions: qualitative colour code vs WT
# T4 construct: SpCBM, residues 121-305 of S. pneumoniae NanA sialidase; 6His (pHISTEV) (cleaved yes); made in house; host or cells: E. coli
# Excerpt: as §2, §3, §1
# [5] = molecular target: T5, Streptococcus pneumoniae NanA sialidase CBM (SpCBM, residues 121-305), wild type WTSp, SEQ ID NO: 4 (Streptococcus pneumoniae, UniProt P62575); experiment: as above; parameters: key: Green: green indicates that the variant closely resembles its WT counterpart for that particular characteristic; Green’: pale green (green’) or yellow indicate increasing degrees of differences; Yellow: pale green (green’) or yellow indicate increasing degrees of differences; Orange: Red or orange indicate significant differences; Red or orange indicate significant differences; conditions: qualitative colour code vs WT
# T5 construct: SpCBM, residues 121-305 of S. pneumoniae NanA sialidase; 6His (pHISTEV) (cleaved yes); made in house; host or cells: E. coli
# Excerpt: as §2, §3, §1
# [6] = molecular target: T6, Streptococcus pneumoniae NanA sialidase CBM (SpCBM, SEQ ID NO: 4) variant Im22 I286A (Streptococcus pneumoniae, UniProt P62575, I286A); experiment: as above; parameters: key: Green: green indicates that the variant closely resembles its WT counterpart for that particular characteristic; Green’: pale green (green’) or yellow indicate increasing degrees of differences; Yellow: pale green (green’) or yellow indicate increasing degrees of differences; Orange: Red or orange indicate significant differences; Red or orange indicate significant differences; conditions: qualitative colour code vs WT
# T6 construct: SpCBM, residues 121-305 of S. pneumoniae NanA sialidase; 6His (pHISTEV) (cleaved yes); made in house; host or cells: E. coli
# Excerpt: as §2, §3, §1
# [7] = molecular target: T7, Streptococcus pneumoniae NanA sialidase CBM (SpCBM, SEQ ID NO: 4) variant Im20 V239T (Streptococcus pneumoniae, UniProt P62575, V239T); experiment: as above; parameters: key: Green: green indicates that the variant closely resembles its WT counterpart for that particular characteristic; Green’: pale green (green’) or yellow indicate increasing degrees of differences; Yellow: pale green (green’) or yellow indicate increasing degrees of differences; Orange: Red or orange indicate significant differences; Red or orange indicate significant differences; conditions: qualitative colour code vs WT
# T7 construct: SpCBM, residues 121-305 of S. pneumoniae NanA sialidase; 6His (pHISTEV) (cleaved yes); made in house; host or cells: E. coli
# Excerpt: as §2, §3, §1
# [8] = molecular target: T8, Streptococcus pneumoniae NanA sialidase CBM (SpCBM, SEQ ID NO: 4) variant Im19 V239A (Streptococcus pneumoniae, UniProt P62575, V239A); experiment: as above; parameters: key: Green: green indicates that the variant closely resembles its WT counterpart for that particular characteristic; Green’: pale green (green’) or yellow indicate increasing degrees of differences; Yellow: pale green (green’) or yellow indicate increasing degrees of differences; Orange: Red or orange indicate significant differences; Red or orange indicate significant differences; conditions: qualitative colour code vs WT
# T8 construct: SpCBM, residues 121-305 of S. pneumoniae NanA sialidase; 6His (pHISTEV) (cleaved yes); made in house; host or cells: E. coli
# Excerpt: as §2, §3, §1
compound,measurement,setting,value
CC(=O)N[C@H]1[C@H]([C@H](O)[C@H](O)CO)O[C@@](O[C@H]2[C@@H](O)[C@@H](CO)O[C@@H](O[C@H]3[C@H](O)[C@@H](O)C(O)O[C@@H]3CO)[C@@H]2O)(C(=O)O)C[C@@H]1O (stereo partly drawn) [sialyllactose],Biacore,[1],Green
same,Biacore,[2],Green
same,ligand affinity,"[3]; in words, compared with WT",reduced ligand affinity
same,Biacore (binding affinity to sialyllactose),[3]; qualitative colour code vs WT,Yellow
same,Biacore (binding affinity to sialyllactose),[4],Green
same,Biacore (binding affinity to sialyllactose),[5],Green
same,Biacore (binding affinity to sialyllactose),[6],Green
same,Biacore (binding affinity to sialyllactose),[7],Green
same,Biacore (binding affinity to sialyllactose),[8],Green
